# Laboratory results taken from PMC6260965 (Structure (London, England : 1993), 2018).
# Read-outs that look alike come from different tables or passages of the source.
# Assays:
# [1] = test system: GT3 double substitution variant Y56H/Q168R; conditions: GT3 Y56H/Q168R selected in vitro; ref Ng et al., 2017; cited from earlier work
# [2] = test system: NS3/4A protease Y56H/D168A versus sum of Y56H and D168A; assay: Double mutant cycle analysis from inhibition constants; conditions: calculated from measured Ki; negative coupling
# [3] = test system: HCV Con1 (genotype 1b) reporter replicon, H77 NS3 protease region with D168A; assay: Cell-based drug susceptibility; conditions: D168A compared to WT
# NS3/4A protease D168A [4] = assay: biochemical; type: biochemical, HCV; conditions: D168A relative to WT protease
# [5] = test system: NS3/4A protease Y56H/D168A; assay: Enzyme inhibition assay, Y56H/D168A protease; type: biochemical, HCV; conditions: for loss in potency in enzyme inhibition assays: Y56H/D168A relative to WT protease
# [6] = test system: HCV Con1 (genotype 1b) reporter replicon, H77 NS3 protease region with Y56H/D168A; assay: Cell-based drug susceptibility; conditions: Y56H/D168A compared to WT
# NS3/4A protease D168A [7] = biological target: NS3/4A protease D168A (Hepatitis C virus genotype 1a, UniProt P27958, D1194A); assay: biochemical; type: biochemical, HCV
# [8] = biological target: NS3/4A protease Y56H/D168A (Hepatitis C virus genotype 1a, UniProt P27958, D1194A/Y1082H); assay: Enzyme inhibition assay, Y56H/D168A protease; type: biochemical, HCV
# NS3/4A protease Y56H = NS3/4A protease Y56H (Hepatitis C virus genotype 1a, UniProt P27958, Y1082H); assay: Enzyme inhibition assay, Y56H protease; type: biochemical, HCV
SMILES,difference in ΔΔG for the double mutant compared to sum of the single mutants [2],potency loss in enzyme inhibition assays (NS3/4A protease D168A [4]),loss in potency in enzyme inhibition assays [5],lower potency in replicon assays [6],other results
CC(C)(C)[C@@H]1NC(=O)O[C@@H]2CCC[C@H]2OC/C=C/C(F)(F)c2nc3ccccc3nc2O[C@@H]2C[C@@H](C(=O)N[C@]3(C(=O)NS(=O)(=O)C4(C)CC4)C[C@H]3C(F)F)N(C2)C1=O [glecaprevir],–,–,–,–,loss in potency [1]: ~1400 fold
C=C[C@@H]1C[C@]1(NC(=O)[C@@H]1C[C@@H]2CN1C(=O)[C@H](C(C)(C)C)NC(=O)O[C@@H]1C[C@H]1CCCCCc1nc3ccc(OC)cc3nc1O2)C(=O)NS(=O)(=O)C1CC1 [grazoprevir],1 to 2 kcal/mol,> 200 fold,2500 fold,1923 fold,potency loss in replicon assays [3]: over 100 fold
CCc1nc2ccc(OC)cc2nc1O[C@@H]1C[C@H]2C(=O)N[C@]3(C(=O)NS(=O)(=O)C4CC4)C[C@H]3/C=C\CCCCC[C@H](NC(=O)OC(C)(C)C)C(=O)N2C1 [5172-mcP1P3],–,–,200–400 fold,–,"Ki (NS3/4A protease D168A [7]; read-out: inhibition constant (Ki), D168A variant): 82.4 nM"
Cc1cnc(C(=O)N[C@H]2CCCCC/C=C\[C@@H]3C[C@@]3(C(=O)NS(=O)(=O)C3CC3)NC(=O)[C@@H]3C[C@@H](Oc4nc5ccccc5c5ccccc45)CN3C2=O)cn1 [paritaprevir],1 to 2 kcal/mol,–,8500 fold,2941 fold,–
CC(C)(C)OC(=O)N[C@H]1CCCCC/C=C\[C@@H]2C[C@@]2(C(=O)NS(=O)(=O)C2CC2)NC(=O)[C@@H]2C[C@@H](OC(=O)N3Cc4cccc(F)c4C3)CN2C1=O [danoprevir],~ 0.06 kcal/mol,200 fold,500 fold,–,"Ki (NS3/4A protease D168A [7]): 199 nM; Ki [8]: 520 nM; additional reduction in potency with Y56H ([5]; Y56H/D168A relative to D168A, enzyme inhibition): 2.5 fold; Ki (NS3/4A protease Y56H): 3 nM"
